The source of these data is PubChem BioAssay (NCI).

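Following 48 hours of exposure in 96-well plates, responses at five concentrations were used to interpolate endpoints linearly. TGI: concentration producing complete growth inhibition.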

Usually TGI stands for the concentration at which net growth stops. Low readings indicate greater sensitivity of the cells, high ones lower sensitivity of the cells.

Test systems include ACHN renal; OVCAR-8 ovarian; IGROV1 ovarian; SK-MEL-2 melanoma; OVCAR-3 ovarian; SNB-75 CNS; MOLT-4 leukemia; HCC-2998 colon; MDA-MB-231 breast; A498 renal.
Common to all, as to test: DTP human tumour cell line panel, 48 h

As to `Nc1ncnc2c1nnn2C1CCC(CP(=O)(O)O)C1` (stereo not given), the TGI in the assay with ACHN renal, in the assay with OVCAR-8 ovarian, in the assay on IGROV1 ovarian, with SK-MEL-2 melanoma, in the assay on OVCAR-3 ovarian and in the assay on SNB-75 CNS was > 100 µM in each case. Moreover, the TGI in the assay with MOLT-4 leukemia, with HCC-2998 colon and with MDA-MB-231 breast was > 100 µM in each case.
For the compound `CCOC(=O)Cc1cc(OC)c(OC)cc1/C(Cl)=C(\C=O)c1ccc(OC)c(OC)c1`, the TGI in the assay on ACHN renal was 55.6 µM; in the assay on OVCAR-8 ovarian, 80.8 µM; in the assay on IGROV1 ovarian, 78.9 µM; in the assay with SK-MEL-2 melanoma, 62.9 µM; with OVCAR-3 ovarian, 28.1 µM; with SNB-75 CNS, > 100 µM. Besides, the TGI in the assay on MOLT-4 leukemia amounted to 42.1 µM.
Regarding `O=c1oc2ccccc2cc1-c1cn2cc(Cl)ccc2n1`, the TGI is 3.31 µM in the assay with ACHN renal; 18.6 µM with OVCAR-8 ovarian; 17.7 µM in the assay with IGROV1 ovarian; 24.9 µM in the assay on SK-MEL-2 melanoma; 2.51 µM in the assay with OVCAR-3 ovarian; > 21.2 µM with SNB-75 CNS. Further, the figures for the TGI in the assay on MOLT-4 leukemia, in the assay with HCC-2998 colon and with MDA-MB-231 breast were > 36.1 µM, 21.7 µM and 23.1 µM, respectively.
On to `N#Cc1c(-c2ccc(Cl)cc2)c2c(n(C3OC(CO)C(O)C(O)C3O)c1=S)CCC2` (stereo not given), for which the TGI was > 100 µM with ACHN renal; > 100 µM in the assay on IGROV1 ovarian; > 100 µM with SK-MEL-2 melanoma; 74.3 µM in the assay with OVCAR-3 ovarian; 76.3 µM with SNB-75 CNS; 29 µM with MOLT-4 leukemia. Besides, the total growth inhibition concentration (TGI) with HCC-2998 colon was 42.1 µM; in the assay with MDA-MB-231 breast it was > 100 µM.
In the case of `COc1ccc(C(=O)Cc2ccc(Br)cc2)cc1OC`, the TGI with ACHN renal, in the assay on OVCAR-8 ovarian, in the assay on IGROV1 ovarian, in the assay with SK-MEL-2 melanoma, in the assay on OVCAR-3 ovarian and in the assay with A498 renal was > 100 µM each time. In addition, the TGI with SNB-75 CNS was 54.5 µM; in the assay with MOLT-4 leukemia it was > 100 µM; in the assay with HCC-2998 colon it was > 100 µM.
`O=c1c2cc(I)ccc2nc(-c2cccs2)n1-c1ccc(O)cc1`: the total growth inhibition concentration (TGI) in the assay on ACHN renal worked out at 22.5 µM; in the assay with OVCAR-8 ovarian, 29.4 µM; in the assay on IGROV1 ovarian, 46.7 µM; with SK-MEL-2 melanoma it was 29.9 µM; in the assay on OVCAR-3 ovarian, 21.8 µM; in the assay on MOLT-4 leukemia it was 78.9 µM. Moreover, the TGI with HCC-2998 colon is 30.6 µM.
For the compound `c1ccc2c(c1)CCc1c-2n(CCN2CCOCC2)c2ccccc12`, the TGI is > 100 µM with ACHN renal; > 100 µM in the assay with OVCAR-8 ovarian; > 100 µM in the assay with IGROV1 ovarian; 25.8 µM with SK-MEL-2 melanoma; > 100 µM with OVCAR-3 ovarian; > 100 µM with MOLT-4 leukemia. Besides, the TGI with HCC-2998 colon and in the assay on MDA-MB-231 breast was > 100 µM each time.
Take `COc1cc2cc[n+]3c(C)c4cc(OC)c(OC)cc4c([O-])c3c2cc1OC`: the TGI with ACHN renal was > 100 µM; in the assay on OVCAR-8 ovarian, > 100 µM; in the assay on IGROV1 ovarian, 72.8 µM; with SK-MEL-2 melanoma, > 100 µM; with OVCAR-3 ovarian it was 24.7 µM; in the assay on A498 renal it was > 100 µM. Besides, the TGI in the assay on SNB-75 CNS, in the assay on MOLT-4 leukemia and in the assay with HCC-2998 colon was > 100 µM throughout.
Take `CCN(C(=S)N[C@H](C(=O)N[C@@H](C)C(=O)OC)C(C)C)c1ccccc1`: the total growth inhibition concentration (TGI) in the assay with ACHN renal, with OVCAR-8 ovarian, with IGROV1 ovarian, in the assay with SK-MEL-2 melanoma, in the assay with OVCAR-3 ovarian and with MOLT-4 leukemia was > 100 µM in each case. Also, the TGI in the assay on HCC-2998 colon and in the assay with MDA-MB-231 breast was > 100 µM each time.
Take `COc1c(O)cc(O)c2c(=O)cc(-c3ccccc3)oc12`: the TGI with ACHN renal was > 100 µM; in the assay with OVCAR-8 ovarian it was > 100 µM; in the assay with IGROV1 ovarian, > 100 µM; with SK-MEL-2 melanoma it was > 100 µM; in the assay with OVCAR-3 ovarian it was 72.5 µM; in the assay on SNB-75 CNS, > 100 µM. Besides, the TGI in the assay on MOLT-4 leukemia, with HCC-2998 colon and in the assay on MDA-MB-231 breast was > 100 µM in each case.
As to `Cc1c(NC(=O)CSC(=S)N2CCN(Cc3ccccc3)CC2)c(=O)n(-c2ccccc2)n1C`, the TGI in the assay with ACHN renal, with OVCAR-8 ovarian, in the assay with IGROV1 ovarian, in the assay on SK-MEL-2 melanoma, with OVCAR-3 ovarian and with MOLT-4 leukemia was > 100 µM each time. Moreover, the TGI in the assay with HCC-2998 colon and in the assay on MDA-MB-231 breast was > 100 µM each time.
For the compound `O=C1/C(=N\S(=O)(=O)c2ccccc2)C([n+]2ccc(Cc3ccccc3)cc2)=C([O-])c2ccccc21`, the TGI with ACHN renal is 4.33 µM; in the assay on OVCAR-8 ovarian, 8.06 µM; in the assay on IGROV1 ovarian it was 4.92 µM; in the assay with SK-MEL-2 melanoma, 3 µM; in the assay with OVCAR-3 ovarian, 2.2 µM; with SNB-75 CNS it was 2.64 µM. Besides, the concentration for total growth inhibition (TGI) in the assay on MOLT-4 leukemia came out at 4.49 µM; in the assay with HCC-2998 colon, 2.51 µM; with MDA-MB-231 breast, 9.89 µM.
In the case of `COc1ccc(C2N(NC(=O)c3ccncc3)C(=O)CS2(=O)=O)cc1F` (stereo not given), the TGI in the assay on ACHN renal, with SK-MEL-2 melanoma, in the assay with A498 renal, with SNB-75 CNS, in the assay with MOLT-4 leukemia and in the assay with HCC-2998 colon was > 100 µM throughout.
With `CN1CCN(CCCBr)CC1`, the TGI in the assay on ACHN renal, in the assay on OVCAR-8 ovarian, with IGROV1 ovarian, in the assay on SK-MEL-2 melanoma, in the assay on OVCAR-3 ovarian and in the assay on A498 renal was > 100 µM in each case. Moreover, the TGI with SNB-75 CNS and in the assay with MDA-MB-231 breast was > 100 µM each time.
In the case of `O=C1C(=O)c2ccccc2C(O)=C1CCCc1ccc(Oc2ccccc2)cc1`, the TGI in the assay with ACHN renal is 76.5 µM; in the assay on OVCAR-8 ovarian it was > 100 µM; with IGROV1 ovarian, 84.3 µM; in the assay on SK-MEL-2 melanoma, 83.4 µM; with OVCAR-3 ovarian it was 24.9 µM; in the assay with A498 renal it was 90.5 µM. Besides, the TGI in the assay on SNB-75 CNS is 73.9 µM; in the assay with MOLT-4 leukemia, > 100 µM; in the assay on HCC-2998 colon, 74.3 µM.
For the compound `CC1CC/C(=C\c2ccc(Cl)cc2)C2OC(N)=C(C#N)C(c3ccc(Cl)cc3)=C12` (stereo not given), the TGI came out at 29.9 µM in the assay with ACHN renal; 27.4 µM in the assay on OVCAR-8 ovarian; 26.5 µM with IGROV1 ovarian; 27.2 µM in the assay on SK-MEL-2 melanoma; 27.5 µM with OVCAR-3 ovarian; 24.2 µM in the assay with MOLT-4 leukemia. The compound further registered a concentration for total growth inhibition (TGI) in the assay with MDA-MB-231 breast of 23.7 µM.
